Data: ChEMBL document CHEMBL5150003, “Why All the Fury over Furin?” (J Med Chem, 2022)
Blank lines part the entries; values can stand above or below the compound they belong to. Peptide text beside a SMILES is read from it.

Columns and labels:
Furin [1] = molecular target: T1, Furin (Homo sapiens, UniProt P09958); test: Inhibition of soluble human furin using boc-RVRR-MCA as substrate incubated for 45 mins and measured by fluorescence assay
[2] = Inhibition of human papilloma virus-11 replication in HEK293 cells measured by transient DNA replication assay; format: functional, cell-based; details: human papillomavirus 11, HEK293
Furin [3] = molecular target: T1, Furin; test: Inhibition of furin (unknown origin)
Furin [4] = molecular target: T1, Furin; test: Inhibition of furin in human U2OS cells measured after 24 hrs by fluorescence assay; format: cell-based
Mus musculus [5] = test: Antifibrotic activity against bleomycin-induced mouse lung fibrosis model assessed as inhibition of hydroxyproline content in lung at 10 mg/kg, po administered once daily; format: functional
Mus musculus [6] = test: Antifibrotic activity against bleomycin-induced mouse lung fibrosis model assessed as inhibition of TGF-beta secretion in lung at 10 mg/kg, po administered once daily; format: functional
Furin [7] = molecular target: T1, Furin; test: Inhibition of Tev-FLAG-His-tagged furin (108 to 574 residues) (unknown origin) using FAM-QRVRRAVGIDK-TAMRA as substrate and measured after 2 hrs
Plasminogen = Plasminogen (Homo sapiens, UniProt P00747); test: Inhibition of human plasmin using Mes-DArg-Phe-Arg-AMC as substrate and measured by fluorescence assay
Prothrombin = Prothrombin (Bos taurus, UniProt P00735); test: Inhibition of bovine thrombin using Tos-Gly-Pro-Arg-AMC as substrate and measured by fluorescence assay
[8] = Inhibition of porcine trypsin using Mes-DArg-Gly-Arg-AMC as substrate and measured by fluorescence assay; parameters: species or system Sus scrofa
Coagulation factor X = Coagulation factor X (Homo sapiens, UniProt P00742); test: Inhibition of human fXa using Mes-DArg-Pro-Arg-AMC as substrate and measured by fluorescence assay
Furin [9] = molecular target: T1, Furin; test: Inhibition of recombinant human furin using Phac-Arg-Val-Arg-Arg-AMC as substrate incubated for 30 mins and measured by microplate reader method
[10] = molecular target: T2, Proprotein convertase subtilisin/kexin type 6 (Homo sapiens, UniProt P29122); test: Inhibition of PACE4 (unknown origin)
T2 sequence (P29122 whole entry): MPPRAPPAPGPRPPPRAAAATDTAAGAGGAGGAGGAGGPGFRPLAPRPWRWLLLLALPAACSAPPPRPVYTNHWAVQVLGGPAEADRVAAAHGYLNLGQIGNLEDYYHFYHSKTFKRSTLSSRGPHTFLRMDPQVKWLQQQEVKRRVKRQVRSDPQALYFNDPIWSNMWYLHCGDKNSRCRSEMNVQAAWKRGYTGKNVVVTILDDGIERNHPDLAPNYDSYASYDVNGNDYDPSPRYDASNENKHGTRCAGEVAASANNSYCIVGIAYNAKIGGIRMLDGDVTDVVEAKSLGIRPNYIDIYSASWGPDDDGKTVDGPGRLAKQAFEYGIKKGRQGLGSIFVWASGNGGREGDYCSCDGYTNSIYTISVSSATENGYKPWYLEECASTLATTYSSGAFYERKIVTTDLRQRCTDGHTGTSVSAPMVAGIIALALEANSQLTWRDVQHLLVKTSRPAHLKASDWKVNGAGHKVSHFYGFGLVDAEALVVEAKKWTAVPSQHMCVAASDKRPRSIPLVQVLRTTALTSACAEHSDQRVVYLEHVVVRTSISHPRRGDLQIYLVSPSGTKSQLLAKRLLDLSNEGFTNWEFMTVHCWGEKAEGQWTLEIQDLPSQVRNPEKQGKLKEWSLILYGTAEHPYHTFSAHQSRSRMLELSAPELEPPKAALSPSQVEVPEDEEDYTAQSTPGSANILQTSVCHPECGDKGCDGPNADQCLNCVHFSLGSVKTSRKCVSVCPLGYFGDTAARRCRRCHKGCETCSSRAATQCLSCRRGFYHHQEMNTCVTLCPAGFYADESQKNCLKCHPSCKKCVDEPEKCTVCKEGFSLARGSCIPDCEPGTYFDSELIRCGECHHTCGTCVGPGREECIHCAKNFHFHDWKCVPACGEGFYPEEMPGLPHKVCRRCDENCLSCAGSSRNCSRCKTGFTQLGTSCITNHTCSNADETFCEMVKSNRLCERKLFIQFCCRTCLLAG

T1 sequence (P09958 whole entry): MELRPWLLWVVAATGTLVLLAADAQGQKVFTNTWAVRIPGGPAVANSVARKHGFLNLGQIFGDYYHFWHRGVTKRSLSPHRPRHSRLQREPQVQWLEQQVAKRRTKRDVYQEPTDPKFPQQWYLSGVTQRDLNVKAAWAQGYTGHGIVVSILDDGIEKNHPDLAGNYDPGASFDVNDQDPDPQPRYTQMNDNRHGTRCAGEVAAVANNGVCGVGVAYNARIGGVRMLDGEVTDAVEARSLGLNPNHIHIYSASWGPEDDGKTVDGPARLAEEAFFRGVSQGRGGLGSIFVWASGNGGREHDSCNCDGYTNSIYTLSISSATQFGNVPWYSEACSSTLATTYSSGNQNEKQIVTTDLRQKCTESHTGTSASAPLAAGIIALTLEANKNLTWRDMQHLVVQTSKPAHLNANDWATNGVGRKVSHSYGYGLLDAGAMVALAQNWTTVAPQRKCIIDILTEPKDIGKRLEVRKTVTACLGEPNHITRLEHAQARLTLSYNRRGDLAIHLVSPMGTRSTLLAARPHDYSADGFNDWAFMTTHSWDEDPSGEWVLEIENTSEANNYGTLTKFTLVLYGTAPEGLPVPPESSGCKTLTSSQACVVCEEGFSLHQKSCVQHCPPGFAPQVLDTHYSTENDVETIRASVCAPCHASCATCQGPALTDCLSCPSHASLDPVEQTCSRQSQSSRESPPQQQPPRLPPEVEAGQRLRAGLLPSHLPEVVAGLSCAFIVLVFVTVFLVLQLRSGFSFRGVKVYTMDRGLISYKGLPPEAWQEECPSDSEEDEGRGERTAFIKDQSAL
Sequence of Coagulation factor X (P00742 41-179 limits assumed): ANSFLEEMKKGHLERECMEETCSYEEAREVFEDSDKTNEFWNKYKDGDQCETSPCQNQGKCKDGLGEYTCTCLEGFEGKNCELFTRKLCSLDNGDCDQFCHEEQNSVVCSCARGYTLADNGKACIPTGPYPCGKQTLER
Sequence of Coagulation factor X (P00742 235-488 limits assumed): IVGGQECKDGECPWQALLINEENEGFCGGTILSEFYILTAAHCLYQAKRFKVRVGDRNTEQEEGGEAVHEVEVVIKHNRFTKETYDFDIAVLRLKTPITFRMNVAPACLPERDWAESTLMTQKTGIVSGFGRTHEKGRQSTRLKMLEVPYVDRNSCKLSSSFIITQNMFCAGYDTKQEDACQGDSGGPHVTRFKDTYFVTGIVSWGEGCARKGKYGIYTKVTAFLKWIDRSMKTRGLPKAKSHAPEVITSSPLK
Sequence of Plasminogen (P00747 97-580 limits assumed): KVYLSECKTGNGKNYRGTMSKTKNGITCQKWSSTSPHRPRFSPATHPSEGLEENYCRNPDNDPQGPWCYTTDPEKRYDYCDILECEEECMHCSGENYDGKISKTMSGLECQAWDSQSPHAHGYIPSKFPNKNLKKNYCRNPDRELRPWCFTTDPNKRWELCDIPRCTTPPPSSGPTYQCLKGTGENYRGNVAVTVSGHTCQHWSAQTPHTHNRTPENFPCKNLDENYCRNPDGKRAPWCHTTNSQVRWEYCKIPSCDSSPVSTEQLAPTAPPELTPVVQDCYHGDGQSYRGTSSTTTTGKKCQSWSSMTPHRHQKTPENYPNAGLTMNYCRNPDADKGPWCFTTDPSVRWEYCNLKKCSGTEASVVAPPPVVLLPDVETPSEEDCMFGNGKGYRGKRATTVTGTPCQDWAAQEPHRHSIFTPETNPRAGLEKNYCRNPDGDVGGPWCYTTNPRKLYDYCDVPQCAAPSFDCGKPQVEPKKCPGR
Sequence of Plasminogen (P00747 581-810 limits assumed): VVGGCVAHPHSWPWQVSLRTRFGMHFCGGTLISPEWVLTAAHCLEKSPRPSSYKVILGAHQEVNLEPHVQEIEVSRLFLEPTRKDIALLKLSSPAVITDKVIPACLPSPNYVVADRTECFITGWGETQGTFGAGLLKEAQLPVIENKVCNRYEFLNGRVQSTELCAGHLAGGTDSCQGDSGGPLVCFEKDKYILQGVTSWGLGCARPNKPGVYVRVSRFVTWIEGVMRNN

Compound: N=C(N)N/N=C/c1ccccc1OCc1ccc(Cl)cc1
Ki (Furin [1]): 25300 nM

Compound: CC(CC1CCN(Cc2cc(Oc3cnc(N4CCN(C)CC4)nc3)nc(-c3cc(Cl)cc(Cl)c3)c2)CC1)C(=O)O (centres undefined)
pXC50 (Furin [4]): 8 | inhibition in vivo at 10 mg/kg (Mus musculus [5]): 54% | inhibition in vivo at 10 mg/kg (Mus musculus [6]): 81% | IC50 (Furin [7]): 0.794 nM

The remaining lines, values ahead:

IC50 [2]: 1700 nM | Ki (Furin [3]): 1570 nM
Compound: CSc1oc(-c2ccc(Cl)cc2Cl)nc1[P+](c1ccccc1)(c1ccccc1)c1ccccc1

Ki (Plasminogen): > 3000 nM | Ki (Prothrombin): > 3000 nM | Ki [8]: 690 nM | Ki (Coagulation factor X): > 3000 nM | Ki (Furin [9]): 0.0101 nM
Compound: CC(C)(C)[C@H](NC(=O)[C@H](CCCONC(=N)N)NC(=O)Cc1ccc(CNC(=N)N)cc1)C(=O)N[C@@H](CCCONC(=N)N)C(=O)NCc1ccc(C(=N)N)cc1

IC50 [10]: 30 nM | IC50 (Furin [3]): 20 nM
Compound: CC(=O)N[C@@H](CC(C)C)C(=O)N[C@@H](CC(C)C)C(=O)N[C@@H](CC(C)C)C(=O)N[C@@H](CC(C)C)C(=O)N[C@@H](CCCNC(=N)N)C(=O)N[C@H](C(=O)N[C@@H](CCCCN)C(=O)N[C@@H](CCCNC(=N)N)C(N)=O)C(C)C (Ac-LLLLRVKR-NH2)
